Measurements: US20240415809A1, “PHARMACEUTICAL COMBINATIONS” (ZYDUS LIFESCIENCES LIMITED, priority 2021, published 2024)

Tests used:
Assay type in all cases: in vivo
[1] = tested on: DSS induced ulcerative colitis in C57 mice; experiment: Apremilast and Rifaximin alone and as fixed dose combination (FDC) in DSS induced ulcerative colitis in C57 mice (Example 8); details: for % change in DAI vs DSS vehicle control / % change in bleeding score vs DSS vehicle control / The rectal bleeding score, Day-6 / The disease activity index (DAI) score, Day-6: Day-6, Rifaximin 102.8 mg/kg p.o. BID, Apremilast 2.1 mg/kg p.o. BID, alone or combined; for The disease activity index (DAI) score, Day-6: six days, 2.5% DSS; for improvement in disease activity index (DAI) score / improvement in rectal bleeding: Example 8, Apremilast equivalent to 10 mg, Rifaximin equivalent to 500 mg human dose
Description: In this study, we have used Apremilast which is equivalent to 10 mg of human dose and Rifaximin which is equivalent to 500 mg of human dose in animal model, which is DSS (Dextran sulfate sodium) induced ulcerative colitis in C57 mice (Br J Pharmacol. 2019 July; 176 (13): 2209-2226. doi: 10.1111/bph.14667. Epub 2019 May 17). The colitis induced by
C57 mice of 9-10 weeks age were used for this study. On the day of study initiation (day-0) animals were randomized based on their body weight in to different treatment groups as below:
On day-0 animals were randomized based on body weight and from the same day onwards animals were administered with 2.5% DSS in RO water along with the test compounds till day-6. The test compounds were formulated in Tween 80 and 0.5% Na. CMC in (0.5:99.50%) ratio and oral administration was done twice a day for six days. During the duration of the experiment, a disease activity index (DAI) score was assessed to evaluate the clinical progression of ulcerative colitis.
The DAI was calculated by grading on a scale of 0-5 using the following parameters: loss of body weight (0=normal; 1=0-5%; 2=6-10%; 3=11-15%; 4=16-20%, 5=>20%), stool consistency (0=normal; 1=soft stools; 2=loose stools; 3=watery diarrhea) and rectal bleeding (0=none; 2=presence of hemoccult; 4=severe bleeding). (Ref: Cytokine 2014, 66, 30-39).
(§1) On the day of termination (Day-6), DAI score was assessed followed by nonfasted blood collection. Then animals were sacrificed and relevant tissues were collected in 10% formalin for histological analysis or snap frozen in liquid nitrogen for other assays.
(§2) With the help of MS Excel, percent change vs disease control (DSS vehicle control) in various parameters were calculated and statistical analysis was performed using graph pad prism software.

[2] = tested on: DSS induced ulcerative colitis in C57 mice; experiment: Apremilast and Rifaximin alone and in combination in DSS induced ulcerative colitis in C57 mice (Example 7); details: for % change in DAI vs DSS vehicle control / % change in bleeding score vs DSS vehicle control / The rectal bleeding score, Day-6 / The disease activity index (DAI) score, Day-6: Day-6, Rifaximin 19 mg/kg p.o., Apremilast 12.5 mg/kg p.o., alone or combined, once a day for six days; for The disease activity index (DAI) score, Day-6: 2.5% DSS; for improvement in disease activity index (DAI) score: Example 7, Apremilast human equivalent mice dose, low dose of Rifaximin
Excerpt: (§3) In this study, we have used human equivalent mice dose of Apremilast and very ( 1/18th-fold) low dose of Rifaximin in animal model, which is DSS (Dextran sulfate sodium) induced ulcerative colitis in C57 mice (Br J Pharmacol. 2019 July; 176 (13): 2209-2226. doi: 10.1111/bph.14667. Epub 2019 May 17). The colitis induced by DSS, presents good reproducibility and also mimics clinical symptoms, inflammatory markers and histopathological features which is similar to IBD in humans (Cell Mol Gastroenterol Hepatol. 2015 Mar. 1; 1 (2): 154-170. doi: 10.1016/j.jcmgh.2015.01.006., Arq Gastroenterol. 2014 April-June; 51 (2): 107-12. doi: 10.1590/s0004-28032014000200007. PMID: 25003261).
(§4) C57 mice of 10-12 weeks age were used for this study. On the day of study initiation (day-0) animals were randomized based on their body weight in to different treatment groups as below:
(§5) On day-0 animals were randomized based on body weight and from the same day onwards animals were administered with 2.5% DSS in RO water along with the test compounds till day-6.
(§6) The test compounds were formulated in Tween 80 and 0.5% Na. CMC in (0.5:99.50%) ratio and oral administration was done once a day for six days. During the duration of the experiment, a disease activity index (DAI) score was assessed to evaluate the clinical progression of ulcerative colitis. The DAI was calculated by grading on a scale of 0-5 using the following parameters: loss of body weight (0=normal; 1=0-5%; 2=6-10%; 3=11-15%; 4=16-20%, 5=>20%), stool consistency (0=normal; 1=soft stools; 2=loose stools; 3=watery diarrhea) and rectal bleeding (0=none; 2=presence of hemoccult; 4=severe bleeding). (Ref: Cytokine 2014, 66, 30-39).
as §1, §2

[3] = tested on: DSS induced ulcerative colitis in C57 mice; experiment: ADD ON effect of FDC with Mesalamine in DSS induced ulcerative colitis in C57 mice (Example 10)
Description: as §3, with “To study the ADD ON effect of FDC (combination” for “In this study, we have used human equivalent mice dose”, “Apremilast equivalent to 15 mg” for “Apremilast”, “Rifaximin equivalent to 500 mg of human dose) with mesalamine equivalent to 800 mg of human” for “very ( 1/18th-fold) low”, “dose” for “dose of Rifaximin”
as §4, §5
as §6, with “twice” for “once”
On the day of termination (Day-6), DAI score was assessed followed by nonfasted blood collection. Then animals were sacrificed, colon length was measured and then collected in 10% formalin for histological analysis or snap frozen in liquid nitrogen for other assays.
With the help of MS Excel, percent change vs disease control (DSS vehicle control) in various parameters were calculated and statistical analysis was performed using graph pad prism software. Percentage improvement of colon length was calculated by calculating the decrease in colon length due to disease from water vehicle control group and then improvement in colon length against DSS vehicle control group by considering the colon length of water vehicle control group as 100%.

[4] = Day-6, Mesalamine 164.4 mg/kg p.o. BID, FDC = Rifaximin 102.8 mg/kg + Apremilast 3.1 mg/kg p.o. BID

Compound | % change in DAI vs DSS vehicle control [1] [%] | % change in bleeding score vs DSS vehicle control [1] [%] | The rectal bleeding score, Day-6 [1] | The disease activity index (DAI) score, Day-6 [1] | improvement in disease activity index (DAI) score [1] [%] | improvement in rectal bleeding [1] [%] | % change in DAI vs DSS vehicle control [2] [%] | % change in bleeding score vs DSS vehicle control [2] [%] | The rectal bleeding score, Day-6 [2] | The disease activity index (DAI) score, Day-6 [2] | improvement in disease activity index (DAI) score [2] | % change in DAI vs DSS vehicle control [3, 4] [%] | % improvement in colon length vs DSS vehicle control [3, 4] [%] | The Colon length, Day-6 [3, 4] [cm] | The disease activity index (DAI) score, Day-6 ([3]; Day-6, Mesalamine 164.4 mg/kg p.o. BID, FDC = Rifaximin 102.8 mg/kg + Apremilast 3.1 mg/kg p.o. BID, six days) | improvement in disease activity index (DAI) score ([3]; Mesalamine equivalent to 800 mg, FDC = Apremilast equivalent to 15 mg and Rifaximin equivalent to 500 mg of human dose) [%]
CCOc1cc(C(CS(C)(=O)=O)N2C(=O)c3cccc(NC(C)=O)c3C2=O)ccc1OC (single isomer, unassigned; (+)) [Apremilast, (+)-2-[1-(3-ethoxy-4-methoxyphenyl)-2-methylsulfonylethyl]-4-acetylaminoisoindoline-1,3-dione] | −11.5 ± 9.5 | −16.7 ± 17.6 | 2.0 ± 0.4 | 6.9 ± 0.7 | 12 | 17 | −32.8 ± 16.7 | −57.1 ± 21.8 | 1.2 ± 0.6 | 4.1 ± 1.0 | 32.8% |  |  |  |  | 
Nc1ccc(O)c(C(=O)O)c1 [Mesalamine] |  |  |  |  |  |  |  |  |  |  |  | −40.2 ± 5.0 | 39.3 ± 11.0 | 6.3 ± 0.2 | 3.1 ± 0.3 | 40
CO[C@H]1/C=C/O[C@@]2(C)Oc3c(C)c(O)c4c(O)c(c5c(nc6cc(C)ccn65)c4c3C2=O)NC(=O)/C(C)=C\C=C\[C@H](C)[C@H](O)[C@@H](C)[C@@H](O)[C@@H](C)[C@H](OC(C)=O)[C@@H]1C [Rifaximin] | −17.9 ± 11.2 | −16.7 ± 21.5 | 2.0 ± 0.5 | 6.4 ± 0.9 | 18 | 17 | −3.3 ± 11.8 | −39.3 ± 16.9 | 1.7 ± 0.5 | 5.9 ± 0.7 | didn't show any improvement |  |  |  |  | 
